Where two headings read alike, the source gives them in different places.
Tests used:
[1] = tested on: HCT116 colon cancer cells engineered to over-express AKR1C3; assay: Anti-proliferative IC50 assay (SRB), HCT116 over-expressing AKR1C3; format: cell-based, human; conditions: for IC50 Ratio WT:AKR1C3: HCT116-WT vs HCT116-AKR1C3
Excerpt: (§1) The cellular cytotoxicity of compounds of the invention resulting from AKR1C3-dependent metabolism of the compounds can readily be observed in anti-proliferative IC50 testing in isogenic cell lines that have been engineered to over-express human AKR1C3, relative to their wild-type counterparts that have been selected for their comparatively low levels of endogenous AKR1C3 expression (by Western blot analysis). The direct role of AKR1C3 in metabolism and cytotoxicity of the compounds is further supported for selected examples by repeat anti-proliferative experiments in the presence of a potent and selective small molecule inhibitor of AKR1C3, SN34037 (Flanagan et al., Bioorganic & Medicinal Chemistry (2014), 22(3), 967-977).
(§2) Four hundred cells were seeded in a volume of 100 μL in each well of a 96-well plate. The cells were left in a humidified incubator (37° C., 5% CO2) for 2 hours in order to enable attachment to the surface of the wells prior to compound addition. All compounds were prepared as stocks in DMSO and stored at −80° C. Frozen stocks of compounds were thawed immediately prior to addition to cells. Working solutions of each compound were made in α-MEM+5% FBS (v/v) at 3 times the required final concentration for the top well. The final concentration of DMSO in the α-MEM solution was ensured to not exceed 1% of the total volume. 50 μL of the working solution was added to the top wells (in duplicates) and gently mixed. The solubility of some compounds precluded the working solution in α-MEM to be 3 times the desired top well concentration. […] A 3-fold serial dilution was carried out along the plate starting from the top well. The first column of wells on the plate served as blanks (containing α-MEM+FBS) and the second column served as control wells (containing cells with no compound added). Following compound addition, the plates were incubated for 4 hours in a humidified incubator (37° C., 5% CO2).
(§3) Following the 4 hour compound exposure, the 96-well plates were washed three times by aspirating media with an Immuno Washer (Nunc) and each well replaced with 150 μL of α-MEM+5% (v/v) FBS+1% (v/v) P/S. The plates were left in a humidified incubator (37° C., 5% CO2) for 5 days to enable cell growth. The cells in 96-well plates were fixed 5 days after compound exposure by adding 50 μL of a 40% (w/v) trichloroacetic acid (TCA) solution so as to obtain a final TCA concentration of 10% in each well. The plates were left in the refrigerator (4° C.) for 1 hour and subsequently rinsed 3 times in tap water. Any excess water was left to drain and the cells were stained with 50 μL of 0.4% (w/v) sulforhodamine B (SRB). The plates with the SRB stain were left in the dark for 30 minutes. Excess stain was removed from the wells by rinsing the plates 4 times in water containing 1% (v/v) acetic acid. The stain was solubilised by adding 100 μL of 10 mM unbuffered Tris (pH 10.5) to each well and the plates were left in a shaker in a dark environment at room temperature for at least 1 hour. The absorbance values of the wells were determined by an ELx 808 Absorbance Microplate Reader (Bio-Tek Instruments, Winooski, Vt., USA), with the wavelength of the measurement filter set at 490 nm and a reference filter set at 450 nm. The absorbance of the reference filter was subtracted from the measurement filter to obtain a final absorbance of λ490-450 nm. The absorbance data was analysed and IC50 values determined by the KC4 microplate data analysis software (KC4™ V3.4, Bio-Tek).
(§4) Anti-proliferative IC50 assays were repeated as described above including the addition of 3 μM SN34037, a selective and potent small molecule inhibitor of AKR1C3.

[2] = tested on: wild-type SNU398 hepatocellular carcinoma cells; assay: Anti-proliferative IC50 assay, wild-type SNU398; format: cell-based
Protocol: as §2, §3, §4
(§5) Materials and methods used are as described for Example 9. […] This is a surprising finding and considerably greater than the approximately 77-fold, 270-fold and 400-fold increase in sensitivity observed for PR-104A, SN33540 and SN34454, respectively. In all cases, this increase in cytotoxicity resulting from expression of AKR1C3 can be substantially reversed by addition of an AKR1C3 inhibitor (SN34037), directly implicating metabolism of the prodrugs by AKR1C3 in the observed increase in cytotoxicity. As an important control, introduction of SN34037 had no anti-proliferative effects in wild-type SNU398 cells treated with compounds of the invention.

[3] = tested on: wild-type H460 lung cancer cells; assay: Anti-proliferative IC50 assay, wild-type H460; format: cell-based, human
Protocol: as §2, §3, §4
Materials and methods used are as described for Example 9.

[4] = tested on: SNU398 hepatocellular carcinoma cells engineered to over-express AKR1C3; assay: Anti-proliferative IC50 assay, SNU398 over-expressing AKR1C3; format: cell-based, human
Protocol: as §2, §3, §4, §5

[5] = tested on: wild-type HCT116 colon cancer cells; assay: Anti-proliferative IC50 assay (SRB), wild-type HCT116; format: cell-based, human
Excerpt: as §1, §2, §3, §4

recombinant human AKR1C3 = molecular target: T1, recombinant human AKR1C3 (Homo sapiens, UniProt P42330); assay: Kinetics assay: metabolism of prodrugs by recombinant human AKR1C3; format: biochemical; conditions: NADPH, pH 7.4, 37° C.
T1 construct: His6 (hexahistidine) (C); made in house; host or cells: E. coli BL21(DE3)
T1 sequence (P42330 1-323): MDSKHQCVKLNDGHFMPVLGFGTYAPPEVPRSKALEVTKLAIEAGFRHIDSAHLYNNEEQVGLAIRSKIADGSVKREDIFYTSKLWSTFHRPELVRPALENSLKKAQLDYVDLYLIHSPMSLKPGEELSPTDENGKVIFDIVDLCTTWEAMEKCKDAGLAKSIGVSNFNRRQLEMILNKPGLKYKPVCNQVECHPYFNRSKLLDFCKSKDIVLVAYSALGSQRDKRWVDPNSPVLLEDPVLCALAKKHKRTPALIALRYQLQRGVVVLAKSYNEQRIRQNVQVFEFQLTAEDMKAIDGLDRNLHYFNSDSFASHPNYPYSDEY
Protocol: E. coli BL21(DE3) cells expressing the pET22b-AKR1C3 construct with a C-terminal hexahistidine (His6) tag and constitutive promoter was generated. Colonies of these transformed E. coli cells were grown in LB agar medium containing 100 μg/mL of ampicillin. A single colony was picked the following day and grown in 400 mL batches of bacterial medium containing ampicillin (100 μg/mL) at 37° C., with continuous shaking at 200 rpm overnight. Bacterial cultures were pelleted by centrifugation (4000×g, 15 minutes) and resuspended in lysis buffer (10 mL/400 mL culture). The cells were disrupted by sonication (Sonicator 3000, Misonix) and centrifuged at 14,000 rpm for 30 minutes (at 4° C.). The cleared lysate was filtered in successive filters containing pore sizes of 1.20 μm, 0.8 μm and 0.2 μm and loaded onto a nickel-agarose affinity chromatography column on an ÄKTA Purifier system. The column was washed with 20 mL of the lysis buffer and the His6-tagged AKR1C3 protein was eluted with lysis buffer supplemented with 500 mM imidazole. The protein was further purified by a liquid chromatography gel filtration column (Superdex 200 HR16/60) using lysis buffer (supplemented with 5% v/v glycerol) and 1 mM DTT (pH 7.0) at a flow rate of 0.3 mL/min. Protein was monitored by absorbance at 280 nm, and purity of the fractions (1 mL) was assessed by SDS-PAGE. Active fractions containing the purified protein were pooled and concentrated by centrifugation (3,000×g, 4° C.) on a Vivaspin concentrator (MWCO 10,000 cutoff; GE Healthcare). The protein containing solution was supplemented with glycerol (to a final concentration of 15%, v/v) and NADP^+ was added to a final concentration of 2 mM.
Kinetic parameters of compounds of the invention were determined in a 96-well plate format. The 100 mM potassium phosphate buffer used in this assay was made with the following reagents to a pH of 7.4: • 0.5 M K2HPO4— 8.2 mL • 0.5 M KH2PO4— 1.8 mL • BSApowder—25 mg • Milli Q water—40 mL
For the assay, 2 μL of varying substrate concentrations were incubated with 94 μL of the potassium phosphate buffer and 2 μL of 5 mM NADPH for 5 minutes in the pre-warmed (37° C.) plate chamber of a Molecular Devices SpectraMax M2 plate reader. Purified AKR1C3 enzyme (2 μL) was added to a final concentration of […] in each well using an Eppendorf electronic multi-channel pipette. Absorbance measurements were recorded immediately upon addition of enzyme over a period of 5 minutes at a wavelength of 400 nm. Absorbance changes for each compound concentration were plotted against time to obtain the rate of absorbance change over the 5 minute period. The rate of absorbance change was then plotted against the compound concentration and non-linear regression analysis and Michaelis-Menten curve fitting performed on GraphPadPrism (version 5.00 for Windows, GraphPad Software, San Diego Calif. USA) in order to determine kinetic parameters of compounds.

[6] = Homo sapiens, HCT-116, 4 hour exposure, 5 days growth, read-out: HCT116-AKR1C3 IC50
[7] = with 3 μM SN34037, read-out: HCT116-AKR1C3 + AKR1C3 Inhibitor IC50
[8] = Homo sapiens, SNU-398; read-out: SNU398-WT Anti-proliferative IC50
[9] = Homo sapiens, SNU-398; with 3 μM SN34037; read-out: SNU398-WT +AKR1C3 Inhibitor Anti-proliferative IC50
[10] = Homo sapiens, NCI-H460; read-out: H460-WT Anti-proliferative IC50
[11] = Homo sapiens, NCI-H460; with 3 μM SN34037; read-out: H460-WT +AKR1C3 Inhibitor Anti-proliferative IC50
[12] = Homo sapiens, SNU-398; read-out: SNU398-AKR1C3 Anti-proliferative IC50
[13] = Homo sapiens, SNU-398; with 3 μM SN34037; read-out: SNU398-AKR1C3 +AKR1C3 Inhibitor Anti-proliferative IC50
[14] = Homo sapiens, HCT-116, 4 hour exposure, 5 days growth, read-out: HCT116-WT IC50
[15] = with 3 μM SN34037, read-out: HCT116-WT + AKR1C3 Inhibitor IC50
[16] = Homo sapiens, HCT-116, read-out: HCT116-AKR1C3 IC50
[17] = Homo sapiens, HCT-116, read-out: HCT116-WT IC50

With `CS(=O)(=O)OCCN(CCOS(C)(=O)=O)c1ccc([N+](=O)[O-])cc1S(=O)(=O)N1CCNCC1` [Compound 640, ((4-nitro-2-(piperazin-1-ylsulfonyl)phenyl)azanediyl)bis(ethane-2,1-diyl) dimethanesulfonate] the “IC50 Ratio WT:AKR1C3” value [1] was 469, the IC50 [1, 6] was 9 nM and the IC50 [1, 7] was 2060 nM. The IC50 [2, 8] was 8.47 µM, the IC50 [2, 9] was 8.49 µM and the IC50 [3, 10] was 27 nM. The IC50 [3, 11] was 5880 nM, the IC50 [4, 12] was 26 nM and the IC50 [4, 13] was 6540 nM. It also gave an IC50 [5, 14] of 4.22 µM and an IC50 [5, 15] of 4.1 µM.
`CCN1CCN(S(=O)(=O)c2cc([N+](=O)[O-])ccc2N(CCOS(C)(=O)=O)CCOS(C)(=O)=O)CC1` [Compound 642, ((2-((4-ethylpiperazin-1-yl)sulfonyl)-4-nitrophenyl)azanediyl)bis(ethane-2,1-diyl) dimethanesulfonate] was tested, and the “IC50 Ratio WT:AKR1C3” value [1] was 1930, the IC50 [1, 16] was 1 nM and the IC50 ([1]; read-out: HCT116-AKR1C3 + AKR1C3 Inhibitor IC50, with 3 μM SN34037) was 828 nM. The IC50 ([2]; Homo sapiens, SNU-398, read-out: SNU398-WT +AKR1C3 Inhibitor Anti-proliferative IC50) was 12.1 µM, the IC50 ([2]; Homo sapiens, SNU-398, read-out: SNU398-WT Anti-proliferative IC50) was 10.3 µM and the IC50 ([3]; Homo sapiens, NCI-H460, read-out: H460-WT +AKR1C3 Inhibitor Anti-proliferative IC50) was 2240 nM. It also gave an IC50 ([3]; Homo sapiens, NCI-H460, read-out: H460-WT Anti-proliferative IC50) of 1 nM, an IC50 ([4]; Homo sapiens, SNU-398, read-out: SNU398-AKR1C3 +AKR1C3 Inhibitor Anti-proliferative IC50) of 1280 nM and an IC50 ([4]; Homo sapiens, SNU-398, read-out: SNU398-AKR1C3 Anti-proliferative IC50) of 2 nM. The IC50 [5, 17] was 1.93 µM and the IC50 ([5]; read-out: HCT116-WT + AKR1C3 Inhibitor IC50, with 3 μM SN34037) was 2.37 µM.
With `CS(=O)(=O)OCCN(CCOS(C)(=O)=O)c1ccc([N+](=O)[O-])cc1S(=O)(=O)N1CCN(CC(O)CO)CC1` (stereo not drawn) [Compound 644, ((2-((4-(2,3-dihydroxypropyl)piperazin-1-yl)sulfonyl)-4-nitrophenyl)azanediyl)bis(ethane-2,1-diyl) dimethanesulfonate] the “IC50 Ratio WT:AKR1C3” value [1] was 978, the IC50 [1, 6] was 109 nM and the IC50 [1, 7] was 47000 nM. It also gave an IC50 [2, 8] of 73.8 µM, an IC50 [2, 9] of 68.4 µM and an IC50 [3, 10] of 387 nM. The IC50 [3, 11] was 88300 nM, the IC50 [4, 12] was 262 nM and the IC50 [4, 13] was 63700 nM. The IC50 [5, 14] was 107 µM and the IC50 [5, 15] was 112 µM.
For `O=C(c1cc([N+](=O)[O-])cc([N+](=O)[O-])c1N(CCBr)CCBr)N1CCc2ccccc2C1` [SN34947, reference compound], the Km (recombinant human AKR1C3) was 7.8 µM, the kcat (recombinant human AKR1C3) was 23.8 s⁻¹ and the “IC50 Ratio WT:AKR1C3” value [1] was 28. The IC50 [1, 16] was 2410 nM and the IC50 [5, 17] was 66.8 µM.
`N#Cc1cccc2c1CCN(C(=O)c1cc([N+](=O)[O-])cc([N+](=O)[O-])c1N(CCBr)CCBr)C2` [SN34951, reference compound] was tested, and the Km (recombinant human AKR1C3) was 8.5 µM, the kcat (recombinant human AKR1C3) was 29.0 s⁻¹ and the “IC50 Ratio WT:AKR1C3” value [1] was over 38. The IC50 [1, 16] was 3970 nM and the IC50 [5, 17] was over 150 µM.
For `CS(=O)(=O)OCCN(CCBr)c1c(C(=O)N2CCN(c3ccccc3)CC2)cc([N+](=O)[O-])cc1[N+](=O)[O-]` [SN35028, reference compound], the Km (recombinant human AKR1C3) was 7.3 µM, the kcat (recombinant human AKR1C3) was 29.1 s⁻¹ and the “IC50 Ratio WT:AKR1C3” value [1] was over 36. It also gave an IC50 [1, 16] of 4150 nM and an IC50 [5, 17] of over 150 µM.

From patent US11661404B2, “Prodrug compounds activated by AKR1C3 and their use for treating hyperproliferative disorders” (priority 2018, dated 2023)
